According to patent US11497738B2, “Di-substituted pyrazole compounds for the treatment of diseases” (FGH BIOTECH, INC., priority 2016, dated 2022):

Test system: SCD1 expression
Test: Inhibition assay: qPCR of SCD1 expression in HepG2 cells (Biological Example 1)
Assay type: cell-based
Conditions: Homo sapiens, 24 hours; for inhibition at 10 µM: read-out: Inhibition Percentage (%) 10 μM (SCD1 expression); for inhibition at 1 µM: read-out: Inhibition Percentage (%) 1 μM (SCD1 expression)
Procedure: HepG2 cells were grown in Dulbecco's Modified Eagle Medium (DMEM) containing 5% FBS and antibiotic-antimycotic in a humidified incubator at 37° C. with 5% CO2. All three components were purchased from ThermoFisher Scientific (Catalog numbers are 11995073, 26140079, and 15240062, respectively). Treatments were done in duplicates for each dose of each compound. For control and treated each treatment, 400,000 HepG2 cells were seeded onto 1 well of 24-well plate. After one day in culture, cells were treated with the test compound (1 μM and/or 10 μM, as indicated below in Table 1) for 24 hours in DMEM with 5% FBS. Compounds were diluted using DMSO from 20 mM stocks. Total RNAs were extracted using RNA extraction kit (Cat #: 45001163, Fisher Scientific) or Trizol. If Trizol was used, RNAs were treated with DNase I (cat #: 18068015, ThermoFisher Scientific) before qPCR. RNA concentrations were measured on a Nanodrop. One-step qPCR were performed using SYBR Green One Step qPCR Kit (Cat #: B25002, Biotool). 10 ng RNA was used in each 10-ul reaction. Triplicate reactions were done for each RNA sample. qPCR was performed on an ABI StepOnePlus using the program: Holding stage step 1, 50° C. 3 min, step 2, 95° C. 5 min; Cycling stage (40 cycles) step 1, 95° C. 10 sec, step 2, 60° C. 30 sec. Primer sequence was as follows: SCD1, 5′-[…]-3′/5′-[…]-3′.
All data was measured in HepG2 cells. % inhibition data of SCD1 expression are provided in Table 1. % inhibition at 10 μM is provided as follows: A≥75%; 75%>B≥50%; 50%>C≥10%. % inhibition at 1 μM is provided as follows: A1≥30%; 30%>B1≥2%. NI means no inhibition in the assay at the indicated concentration of compound tested. NT means not tested.

| SMILES | inhibition at 10 µM [%] | inhibition at 1 µM [%] |
| --- | --- | --- |
| CCCc1cc(-n2cc(-c3ccc(NS(=O)(=O)C(C)C)cc3)cn2)ccn1 [Example 4, N-(4-(1-(2-propylpyridin-4-yl)-1H-pyrazol-4-yl)phenyl)propane-2-sulfonamide] | > 75 |  |
| CCCc1cc(-n2cc(-c3ccc(NC4CCC4)nc3)c(C)n2)ccn1 [Example 57, N-cyclobutyl-5-(3-methyl-1-(2-propylpyridin-4-yl)-1H-pyrazol-4-yl)pyridin-2-amine] | > 75 | 2 to 30 |
| CCCc1cc(-n2nc(C)c(-c3ccc(NS(=O)(=O)C(F)(F)F)nc3)c2C)ccn1 [Example 39, N-(5-(3,5-dimethyl-1-(2-propylpyridin-4-yl)-1H-pyrazol-4-yl)pyridin-2-yl)-1,1,1-trifluoromethanesulfonamide] | 10 to 50 | 2 to 30 |
| CCCc1cc(-n2cc(-c3ncc(NS(=O)(=O)C4CC4)cc3Cl)cn2)ccn1 [Example 28, N-(5-chloro-6-(1-(2-propylpyridin-4-yl)-1H-pyrazol-4-yl)pyridin-3-yl)cyclopropanesulfonamide] | > 75 | 2 to 30 |
| CCCc1cc(-n2cc(-c3ccc(NS(=O)(=O)C4CC4)nc3)cn2)ccn1 [Example 5, N-(5-(1-(2-propylpyridin-4-yl)-1H-pyrazol-4-yl)pyridin-2-yl)cyclopropanesulfonamide] | 10 to 50 |  |
| CCCc1cc(-n2cc(-c3ncc(NS(=O)(=O)CC4CC4)cc3Cl)cn2)ccn1 [Example 29, N-(5-chloro-6-(1-(2-propylpyridin-4-yl)-1H-pyrazol-4-yl)pyridin-3-yl)-1-cyclopropylmethanesulfonamide] | > 75 | 2 to 30 |
| CCCc1cc(-n2cc(-c3ccc(NS(=O)(=O)C4CC4)cc3)cn2)ccn1 [Example 1, N-(4-(1-(2-propylpyridin-4-yl)-1H-pyrazol-4-yl)phenyl)cyclopropanesulfonamide] | > 75 |  |
| CCCn1cc(-n2cc(-c3ccc(NS(C)(=O)=O)cc3)cn2)ccc1=O [Example 45, N-(4-(1-(6-oxo-1-propyl-1,6-dihydropyridin-3-yl)-1H-pyrazol-4-yl)phenyl)methanesulfonamide] | > 75 | ≥ 30 |
| CCCc1cc(-n2nc(C)c(-c3ccc(NC4CCC4)nc3)c2C)ccn1 [Example 38, N-cyclobutyl-5-(3,5-dimethyl-1-(2-propylpyridin-4-yl)-1H-pyrazol-4-yl)pyridin-2-amine] | > 75 | ≥ 30 |
| CCCc1cc(-n2cc(-c3ccc(NS(=O)(=O)C4CC4)cc3Cl)cn2)ccn1 [Example 10, N-(3-chloro-4-(1-(2-propylpyridin-4-yl)-1H-pyrazol-4-yl)phenyl)cyclopropanesulfonamide] | > 75 | ≥ 30 |
| CCCc1cc(-n2cc(-c3ncc(NC(C)C)cc3Cl)cn2)ccn1 [Example 24, 5-chloro-N-isopropyl-6-(1-(2-propylpyridin-4-yl)-1H-pyrazol-4-yl)pyridin-3-amine] | > 75 | ≥ 30 |
| CCCc1cc(-n2nc(C)c(-c3ccc(NCC(C)C)nc3)c2C)ccn1 [Example 34, 5-(3,5-dimethyl-1-(2-propylpyridin-4-yl)-1H-pyrazol-4-yl)-N-isobutylpyridin-2-amine] | 50 to 75 | 2 to 30 |
| CCCc1cc(-n2cc(-c3ccc(NC(C)C)cn3)cn2)ccn1 [Example 21, N-isopropyl-6-(1-(2-propylpyridin-4-yl)-1H-pyrazol-4-yl)pyridin-3-amine] | > 75 | 2 to 30 |
| CCCc1cc(-n2cc(-c3ncc(NCC(C)C)cc3Cl)cn2)ccn1 [Example 26, 5-chloro-N-isobutyl-6-(1-(2-propylpyridin-4-yl)-1H-pyrazol-4-yl)pyridin-3-amine] | > 75 | ≥ 30 |
| CCCc1cc(-n2nc(C)c(-c3ccc(NC4CCCC4)nc3)c2C)ccn1 [Example 40, N-cyclopentyl-5-(3,5-dimethyl-1-(2-propylpyridin-4-yl)-1H-pyrazol-4-yl)pyridin-2-amine] | 50 to 75 | ≥ 30 |
| CCCc1cc(-n2cc(-c3ccc(NS(=O)(=O)CC4CC4)cc3)cn2)ccn1 [Example 2, 1-cyclopropyl-N-(4-(1-(2-propylpyridin-4-yl)-1H-pyrazol-4-yl)phenyl)methanesulfonamide] | > 75 |  |
| CCCc1cc(-n2cc(-c3ccc(NCC(C)C)nc3)cn2)ccn1 [Example 8, N-isobutyl-5-(1-(2-propylpyridin-4-yl)-1H-pyrazol-4-yl)pyridin-2-amine] | > 75 |  |

| SMILES | inhibition at 10 µM [%] | inhibition at 1 µM [%] |
| --- | --- | --- |
| CCCc1cc(-n2cc(-c3ccc(NS(C)(=O)=O)cn3)cn2)ccn1 [Example 20, N-(6-(1-(2-propylpyridin-4-yl)-1H-pyrazol-4-yl)pyridin-3-yl)methanesulfonamide] | 10 to 50 |  |
| CCCc1cc(-n2cc(-c3ncc(NS(C)(=O)=O)cc3Cl)cn2)ccn1 [Example 30, N-(5-chloro-6-(1-(2-propylpyridin-4-yl)-1H-pyrazol-4-yl)pyridin-3-yl)methanesulfonamide] | 50 to 75 |  |
| CCCc1cc(-n2cc(-c3ccc(NC4CCC4)nc3)cn2)ccn1 [Example 33, N-cyclobutyl-5-(1-(2-propylpyridin-4-yl)-1H-pyrazol-4-yl)pyridin-2-amine] | > 75 | ≥ 30 |
| CCCc1cc(-n2cc(-c3ccc(NC(C)C)nc3)cn2)ccn1 [Example 7, N-isopropyl-5-(1-(2-propylpyridin-4-yl)-1H-pyrazol-4-yl)pyridin-2-amine] | > 75 |  |
| CCCc1cc(-n2cc(-c3ccc(NCC4CC4)cn3)cn2)ccn1 [Example 16, N-(cyclopropylmethyl)-6-(1-(2-propylpyridin-4-yl)-1H-pyrazol-4-yl)pyridin-3-amine] | > 75 | 2 to 30 |
| CCCc1cc(-n2cc(-c3ccc(NC(C)C)cc3)cn2)ccn1 [Example 6, N-isopropyl-4-(1-(2-propylpyridin-4-yl)-1H-pyrazol-4-yl)aniline] | > 75 |  |
| CCCc1cc(-n2cc(-c3ccc(NC(C)C)cc3Cl)cn2)ccn1 [Example 13, 3-chloro-N-isopropyl-4-(1-(2-propylpyridin-4-yl)-1H-pyrazol-4-yl)aniline] | > 75 | ≥ 30 |
| CCCc1cc(-n2cc(-c3ccc(NCC(C)C)nc3)c(C)n2)ccn1 [Example 53, N-isobutyl-5-(3-methyl-1-(2-propylpyridin-4-yl)-1H-pyrazol-4-yl)pyridin-2-amine] | > 75 | 2 to 30 |
| CCCc1cc(-n2cc(-c3ccc(NS(=O)(=O)CC4CC4)cn3)cn2)ccn1 [Example 19, 1-cyclopropyl-N-(6-(1-(2-propylpyridin-4-yl)-1H-pyrazol-4-yl)pyridin-3-yl)methanesulfonamide] | > 75 | 2 to 30 |
| CCCc1cc(-n2cc(-c3ccc(NS(=O)(=O)C4CC4)cn3)cn2)ccn1 [Example 18, N-(6-(1-(2-propylpyridin-4-yl)-1H-pyrazol-4-yl)pyridin-3-yl)cyclopropanesulfonamide] | > 75 |  |
| CCCc1cc(-n2cc(-c3ccc(NC4CCCC4)cn3)cn2)ccn1 [Example 23, N-cyclopentyl-6-(1-(2-propylpyridin-4-yl)-1H-pyrazol-4-yl)pyridin-3-amine] | > 75 | 2 to 30 |
| CCCn1cc(-n2cc(-c3ccc(NC(C)C)nc3)cn2)ccc1=O [Example 44, 5-(4-(6-(isopropylamino)pyridin-3-yl)-1H-pyrazol-1-yl)-1-propylpyridin-2(1H)-one] | > 75 | 2 to 30 |
| CCCc1cc(-n2cc(-c3ccc(NS(C)(=O)=O)cc3Cl)cn2)ccn1 [Example 9, N-(3-chloro-4-(1-(2-propylpyridin-4-yl)-1H-pyrazol-4-yl)phenyl)methanesulfonamide] | > 75 | ≥ 30 |
| CCCc1cc(-n2nc(C)c(-c3ccc(NC(C)C)nc3)c2C)ccn1 [Example 36, 5-(3,5-dimethyl-1-(2-propylpyridin-4-yl)-1H-pyrazol-4-yl)-N-isopropylpyridin-2-amine] | 50 to 75 |  |
| CCCc1cc(-n2cc(-c3ccc(NCC(C)C)cc3Cl)cn2)ccn1 [Example 14, 3-chloro-N-isobutyl-4-(1-(2-propylpyridin-4-yl)-1H-pyrazol-4-yl)aniline] | > 75 | ≥ 30 |
| CCCc1cc(-n2cc(-c3ccc(NCC(C)C)cn3)cn2)ccn1 [Example 15, N-isobutyl-6-(1-(2-propylpyridin-4-yl)-1H-pyrazol-4-yl)pyridin-3-amine] | > 75 | 2 to 30 |
